Laboratory results as given in patent US12491251B2, “Degraders of cyclin-dependent kinase 7 (CDK7) and uses thereof” (DANA-FARBER CANCER INSTITUTE, INC., priority 2019, dated 2025).

Experiments:
CDK7 [1] = target: T1, CDK7 (Homo sapiens, UniProt P50613); assay: Rescue of compound-induced CDK7 degradation in Jurkat cells (ligand and proteasome dependence), immunoblot; assay type: cell-based; details: for rescue of the CDK7 degradation induced by bispecific compound 3 / rescue of the CDK7 degradation induced by bispecific compound 20: Jurkat cells pretreated 2 h (10 μM YKL-5-124, 10 μM DGY-05-180, 0.2 μM Bortezomib, 1 μM MLN4924); for rescue of the CDK7 degradation induced by bispecific compound 3: then 1 μM compound 3 for 4 h; for rescue of the CDK7 degradation induced by bispecific compound 20: then 1 μM compound 20 for 4 h; for dependence of the induced CDK7 degradation: Jurkat cells, 1 μM compound for 4 h after 2 h pretreatment with competitor or pathway inhibitor
T1 construct: endogenous in cells; host or cells: Jurkat cells
T1 sequence (P50613 2-346 limits assumed): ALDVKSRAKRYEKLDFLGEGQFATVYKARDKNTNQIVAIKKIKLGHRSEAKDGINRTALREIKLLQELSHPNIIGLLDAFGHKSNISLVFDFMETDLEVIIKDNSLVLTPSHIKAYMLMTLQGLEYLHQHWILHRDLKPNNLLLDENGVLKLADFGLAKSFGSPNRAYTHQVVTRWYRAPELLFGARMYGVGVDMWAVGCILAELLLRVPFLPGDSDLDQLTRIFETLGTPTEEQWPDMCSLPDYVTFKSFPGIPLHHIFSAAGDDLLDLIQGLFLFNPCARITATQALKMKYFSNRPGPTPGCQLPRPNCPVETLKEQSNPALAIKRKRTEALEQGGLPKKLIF
T1 sequence (P51946 whole entry partner): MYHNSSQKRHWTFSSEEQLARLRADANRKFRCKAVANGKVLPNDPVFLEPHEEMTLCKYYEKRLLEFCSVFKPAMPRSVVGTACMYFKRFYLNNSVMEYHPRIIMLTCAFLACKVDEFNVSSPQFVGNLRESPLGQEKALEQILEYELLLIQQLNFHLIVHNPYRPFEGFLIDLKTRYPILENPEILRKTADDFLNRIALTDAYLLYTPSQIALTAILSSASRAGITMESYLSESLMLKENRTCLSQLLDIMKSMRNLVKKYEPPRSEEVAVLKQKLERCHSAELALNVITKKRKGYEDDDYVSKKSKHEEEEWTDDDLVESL
T1 sequence (P51948 whole entry partner): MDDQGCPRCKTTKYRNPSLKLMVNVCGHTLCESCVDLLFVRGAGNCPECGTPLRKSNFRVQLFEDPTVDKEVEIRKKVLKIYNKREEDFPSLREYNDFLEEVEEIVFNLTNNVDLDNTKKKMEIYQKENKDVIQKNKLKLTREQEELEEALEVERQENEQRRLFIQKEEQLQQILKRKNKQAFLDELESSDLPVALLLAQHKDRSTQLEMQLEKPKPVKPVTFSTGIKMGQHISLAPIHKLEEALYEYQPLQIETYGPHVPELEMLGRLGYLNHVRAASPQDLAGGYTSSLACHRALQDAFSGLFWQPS
Experimental: (§1) Jurkat cells were treated with DMSO or 1 μM of compounds 1-26 for 6 hours. Cells were then lysed in radioimmunoprecipitation assay (RIPA) buffer (Sigma® Life Science) containing protease/phosphatase inhibitor cocktail (Roche). The protein concentrations were measured by bicinchoninic acid assay (BCA) analysis (Pierce™). Equal amounts of protein were resolved by 4-12% Tris-Base gels (Invitrogen™), and then transferred to the immunoblot polyvinylidene difluoride (PVDF) membrane (BioRad), and immunoblotted with primary antibodies against CDK7 (cell signaling) and glyceraldehyde 3-phosphate dehydrogenase (GAPDH) (Cell Signaling Technology®), and then immunoblotted with IRDye®800-labeled goat anti-rabbit immunoglobulin G (IgG) and IRDye®680-labeled goat anti-mouse IgG (LI-COR®) secondary antibodies. The membranes were detected on an Odyssey® CLx system.
Jurkat cells were pretreated with 10 μM YKL-5-124 (the parental compound and known CDK7 inhibitor), 10 μM DGY-05-180 (VHL ligand), 0.2 μM Bortezomib (a proteasome inhibitor available from, e.g., Millipore Sigma, Cat. No. 179324-69-7, Burlington, MA), and 1 μM MLN4924 (a neddylation inhibitor available from, e.g., MedChemExpress (MCE®), Cat. No. HY-70062, Monmouth Junction, NJ), for 2 h, and then treated with 1 μM compound 3 or 20 for 4 h. Cells were lysed and immunoblotted as described in Example 27 with antibodies to CDK7 and GAPDH. The structures of YKL-5-124, DGY-05-180, Bortezomib and MLN4924 are set forth below.

CDK7 [2] = target: T1, CDK7; assay: CDK7 degradation in Jurkat cells by immunoblot; assay type: cell-based; details: 1 μM compound, 6 hours, vs DMSO
Experimental: as §1

Structure (SMILES): CC(C)C[C@H](NC(=O)[C@H](Cc1ccccc1)NC(=O)c1cnccn1)B(O)O [Bortezomib]
- rescue of the CDK7 degradation induced by bispecific compound 3 (CDK7 [1]): rescued the CDK7 degradation
- rescue of the CDK7 degradation induced by bispecific compound 20 (CDK7 [1]): rescued the CDK7 degradation

Structure (SMILES): Cc1ncsc1-c1ccc([C@H](C)NC(=O)[C@@H]2C[C@@H](O)CN2C(=O)[C@@H](NC(=O)CCCNC(=O)c2ccc(C(=O)Nc3n[nH]c4c3CN(C(=O)N[C@H](CN(C)C)c3ccccc3)C4(C)C)cc2)C(C)(C)C)cc1 [Compound 3, N1-(5-(((S)-2-(dimethylamino)-1-phenylethyl)carbamoyl)-6,6-dimethyl-1,4,5,6-tetrahydropyrrolo[3,4-c]pyrazol-3-yl)-N4-(4-(((S)-1-((2S,4R)-4-hydroxy-2-(((S)-1-(4-(4-methylthiazol-5-yl)phenyl)ethyl)carbamoyl)pyrrolidin-1-yl)-3,3-dimethyl-1-oxobutan-2-yl)amino)-4-oxobutyl)terephthalamide]
- degradation of CDK7 (immunoblot) (CDK7 [2]): induced the degradation of CDK7
- dependence of the induced CDK7 degradation (CDK7 [1]): both ligand- and proteasome-dependent

Structure (SMILES): Cc1ncsc1-c1ccc([C@H](C)NC(=O)[C@@H]2C[C@@H](O)CN2C(=O)[C@@H](NC(=O)CCCCNC(=O)c2ccc(C(=O)Nc3n[nH]c4c3CN(C(=O)N[C@H](CN(C)C)c3ccccc3)C4(C)C)cc2)C(C)(C)C)cc1 [Compound 20, N^1-(5-(((S)-2-(dimethylamino)-1-phenylethyl)carbamoyl)-6,6-dimethyl-1,4,5,6-tetrahydropyrrolo[3,4-c]pyrazol-3-yl)-N^4-(5-(((S)-1-((2S,4R)-4-hydroxy-2-(((S)-1-(4-(4-methylthiazol-5-yl)phenyl)ethyl)carbamoyl)pyrrolidin-1-yl)-3,3-dimethyl-1-oxobutan-2-yl)amino)-5-oxopentyl)terephthalamide]
- degradation of CDK7 (immunoblot) (CDK7 [2]): induced the degradation of CDK7
- dependence of the induced CDK7 degradation (CDK7 [1]): both ligand- and proteasome-dependent

Structure (SMILES): NS(=O)(=O)OC[C@@H]1C[C@@H](n2ccc3c(N[C@H]4CCc5ccccc54)ncnc32)C[C@@H]1O [MLN4924]
- rescue of the CDK7 degradation induced by bispecific compound 3 (CDK7 [1]): rescued the CDK7 degradation
- rescue of the CDK7 degradation induced by bispecific compound 20 (CDK7 [1]): rescued the CDK7 degradation

Structure (SMILES): C=CC(=O)Nc1ccc(C(=O)Nc2n[nH]c3c2CN(C(=O)N[C@H](CN(C)C)c2ccccc2)C3(C)C)cc1 [YKL-5-124]
- rescue of the CDK7 degradation induced by bispecific compound 3 (CDK7 [1]): rescued the CDK7 degradation
- rescue of the CDK7 degradation induced by bispecific compound 20 (CDK7 [1]): rescued the CDK7 degradation
